{"source": "patent US11286243B2", "about": "(GLOBAL BLOOD THERAPEUTICS, INC., priority 2018, dated 2022)", "data": [{"target": "T1, human ferroportin (Homo sapiens, UniProt Q9NP59)", "T1 construct": "luciferase reporter (probably NanoLuc: read with the Nano-Glo Luciferase Assay System); expressed in transfected cells; host or cells: CHO cells, stably transfected, doxycycline-inducible expression", "T1 sequence (Q9NP59 1-571)": "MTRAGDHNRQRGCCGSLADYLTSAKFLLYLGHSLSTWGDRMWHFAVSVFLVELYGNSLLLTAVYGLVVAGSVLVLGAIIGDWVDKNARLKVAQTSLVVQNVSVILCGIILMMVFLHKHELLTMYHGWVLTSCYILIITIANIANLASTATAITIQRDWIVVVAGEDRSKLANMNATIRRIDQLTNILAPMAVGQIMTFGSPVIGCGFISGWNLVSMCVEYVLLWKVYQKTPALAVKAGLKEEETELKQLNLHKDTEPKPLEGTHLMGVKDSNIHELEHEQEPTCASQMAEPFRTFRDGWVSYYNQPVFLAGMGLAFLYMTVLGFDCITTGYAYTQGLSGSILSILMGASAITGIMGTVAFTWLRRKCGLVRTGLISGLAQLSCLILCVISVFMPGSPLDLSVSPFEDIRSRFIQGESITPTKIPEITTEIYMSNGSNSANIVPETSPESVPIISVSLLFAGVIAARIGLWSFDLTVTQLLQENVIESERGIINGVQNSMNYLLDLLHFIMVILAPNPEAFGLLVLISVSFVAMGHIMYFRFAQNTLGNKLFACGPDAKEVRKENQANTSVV", "assay": "In-vitro ferroportin internalization assay (luciferase reporter)", "assay_type": "cell-based", "conditions": "average pEC50; stably-transfected CHO cell line expressing human ferroportin tagged to a luciferase reporter; 6 h incubation with test compounds", "in_short": "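CHO cells stably expressing human ferroportin fused to a luciferase reporter were plated 24 h with ferric ammonium citrate, then induced with doxycycline for 24 h. Compounds in DMSO were incubated with cells for 6 h before luciferase readout by Nano-Glo. Results are reported as average pEC50.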", "values": [{"smiles": "COc1cccnc1CNc1ncnc2sc(CCNCCc3nc4ccccc4[nH]3)nc12", "note": "[Compound 11, 2-(2-{[2-(1H-1,3-benzodiazol-2-yl)ethyl]amino}ethyl)-N-[(3-methoxypyridin-2-yl)methyl]-[1,3]thiazolo[5,4-d]pyrimidin-7-amine]", "pEC50": 6.7}, {"smiles": "Fc1cccnc1CNc1ncnc2sc(CCNCCc3nc4ccccc4o3)nc12", "note": "[Compound 16, 2-(2-{[2-(1,3-benzoxazol-2-yl)ethyl]amino}ethyl)-N-[(3-fluoropyridin-2-yl)methyl]-[1,3]thiazolo[5,4-d]pyrimidin-7-amine]", "pEC50": 5.6}, {"smiles": "Fc1cccnc1CNc1ncnc2sc([C@H](F)CNCCc3nc4ccccc4[nH]3)nc12", "note": "[Compound 77, 2-[(1R)-2-{[2-(1H-1,3-benzodiazol-2-yl)ethyl]amino}-1-fluoroethyl]-N-[(3-fluoropyridin-2-yl)methyl]-[1,3]thiazolo[5,4-d]pyrimidin-7-amine]", "pEC50": 7.8}, {"smiles": "Fc1cccnc1CNc1nccc2oc(CCNCCc3ncc[nH]3)nc12", "note": "[Compound 58]", "pEC50": 5.7}, {"smiles": "Fc1cccnc1CNc1ncnc2sc(CCNCCc3ncc(-c4ccccc4)[nH]3)nc12", "note": "[Compound 35, N-[(3-fluoropyridin-2-yl)methyl]-2-(2-{[2-(5-phenyl-1H-imidazol-2-yl)ethyl]amino}ethyl)-[1,3]thiazolo[5,4-d]pyrimidin-7-amine]", "pEC50": 7.1}, {"smiles": "c1cnc(CNc2ncnc3sc(CCNCCc4nc5ccccc5[nH]4)nc23)nc1", "note": "[Compound 9, 2-(2-{[2-(1H-1,3-benzodiazol-2-yl)ethyl]amino}ethyl)-N-[(pyrimidin-2-yl)methyl]-[1,3]thiazolo[5,4-d]pyrimidin-7-amine]", "pEC50": 6.3}]}]}
